From PubChem BioAssay AID330 (DTP/NCI, 2004) come the findings set out here.

Several values for one entry are separate records, joined by “and”; a condition that tells them apart may be missing. Equal entries are not always repeated. Toxic doses and inconclusive results are not listed.

The test system of this assay is P388 leukemia ip, CD2F1 mice, survival T/C. Description: NCI In Vivo Anticancer Drug Screen. Data for tumor model P388 Leukemia (intraperitoneal) in CD2F1 (CDF1) mice. The settings on record: endpoint: median survival time, higher = longer survival. The method, boiled down: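 Mice carrying the transplanted tumor received test compound or vehicle. Survival was recorded in each group, and the value is the treated-group measurement divided by that of the vehicle-treated control group.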

Setting [1] is: dose: 100.0 mg/kg/injection, schedule: Q01DX001 (ip), vehicle: saline with Tween-80.
Where [2] appears, read: dose: 200.0 mg/kg/injection, schedule: Q01DX001 (ip), vehicle: saline with Tween-80.
Setting [3] is: dose: 400.0 mg/kg/injection, schedule: Q01DX001 (ip), vehicle: saline with Tween-80.
Setting [4] is: dose: 50.0 mg/kg/injection, schedule: Q01DX009 (ip), vehicle: saline with Tween-80.
Where [5] appears, read: dose: 100.0 mg/kg/injection, schedule: Q01DX009 (ip), vehicle: saline with Tween-80.
Setting [6] is: dose: 200.0 mg/kg/injection, schedule: Q01DX009 (ip), vehicle: saline with Tween-80.
Where [7] appears, read: dose: 12.5 mg/kg/injection, schedule: Q01DX009 (ip), vehicle: saline.
Where [8] appears, read: dose: 25.0 mg/kg/injection, schedule: Q01DX009 (ip), vehicle: saline with Tween-80.
[9] abbreviates: dose: 25.0 mg/kg/injection, schedule: Q01DX009 (ip), vehicle: saline.
Setting [10] is: dose: 50.0 mg/kg/injection, schedule: Q01DX009 (ip), vehicle: saline.
Setting [11] is: dose: 100.0 mg/kg/injection, schedule: Q01DX009 (ip), vehicle: saline.
Where [12] appears, read: dose: 200.0 mg/kg/injection, schedule: Q01DX009 (ip), vehicle: saline.
Where [13] appears, read: dose: 50.0 mg/kg/injection, schedule: Q01DX009 (ip), vehicle: Klucel (hydroxypropylcellulose) (HPC).
Setting [14] is: dose: 100.0 mg/kg/injection, schedule: Q01DX009 (ip), vehicle: Klucel (hydroxypropylcellulose) (HPC).
Where [15] appears, read: dose: 200.0 mg/kg/injection, schedule: Q01DX009 (ip), vehicle: Klucel (hydroxypropylcellulose) (HPC).

Turning to `CNC(=O)Nc1nc2ccc([N+](=O)[O-])cc2[nH]1`, the T/C is, setting by setting: (dose: 200.0 mg/kg/injection, schedule: Q04DX003 (oral), vehicle: saline with Tween-80) 110 % of control; (dose: 400.0 mg/kg/injection, schedule: Q04DX003 (oral), vehicle: saline with Tween-80) 112 % of control; (dose: 800.0 mg/kg/injection, schedule: Q04DX003 (oral), vehicle: saline with Tween-80) 116 % of control and 121 % of control.

In the case of `Cc1ccc(SCc2c(COc3ccc(Cl)cc3)sc3ccc(Cl)cc23)cc1`, the T/C by setting is: under setting [1], 90 % of control; under setting [2], 86 % of control; under setting [3], 100 % of control.

As to `O=[n+]1c2c(n([O-])c3cc(Cl)c(Cl)cc31)CCCCC2`, the T/C under setting [4] was 91 % of control, the T/C under setting [5] is 99 % of control and the T/C under setting [6] was 99 % of control.

With `CCOC(=O)C(Cc1ccc(O)c(C=O)c1)NC(C)=O` (stereo not drawn), the T/C was 96 % of control (dose: 60.0 mg/kg/injection, schedule: Q01DX005 (ip), vehicle: Klucel (hydroxypropylcellulose) (HPC)); 97 % of control (dose: 120.0 mg/kg/injection, schedule: Q01DX005 (ip), vehicle: Klucel (hydroxypropylcellulose) (HPC)); 98 % of control (dose: 240.0 mg/kg/injection, schedule: Q01DX005 (ip), vehicle: Klucel (hydroxypropylcellulose) (HPC)).

With `CC[N+](C)(CC)CCNC(=O)Nc1ccc(-c2ccc(NC(=O)NCC[N+](C)(CC)CC)c(OC)c2)cc1OC`, the T/C by setting is: (dose: 6.25 mg/kg/injection, schedule: Q01DX009 (ip), vehicle: saline) 98 % of control; under setting [7], 96 % of control.

`CCOC(=O)c1cnn(-c2ccccc2)c1N`: the T/C was 99 % of control (dose: 12.5 mg/kg/injection, schedule: Q01DX009 (ip), vehicle: saline with Tween-80); 99 % of control under setting [7]; 109 % of control under setting [8]; 102 % of control under setting [9]; 101 % of control under setting [4]; 99 % of control under setting [10]. Also, the T/C under setting [5] was 96 % of control; the T/C under setting [11] is 103 % of control; the T/C under setting [6] is 96 % of control; the T/C under setting [12] was 94 % of control; the T/C (dose: 400.0 mg/kg/injection, schedule: Q01DX009 (ip), vehicle: saline with Tween-80) was 99 % of control; the T/C (dose: 400.0 mg/kg/injection, schedule: Q01DX009 (ip), vehicle: saline) was 105 % of control.

As for `CCCCCCCCCCCCCCCCS(=O)(=O)N/N=c1/sc2ccc(S(=O)(=O)O)cc2n1C`, the T/C runs as follows: under setting [13], 115 % of control; under setting [14], 102 % of control; under setting [15], 94 % of control.

On to `CCCCCCCCCCCCCCN1CCOCC1`, for which the T/C under setting [7] is 94 % of control; the T/C under setting [9] is 100 % of control; the T/C under setting [10] was 100 % of control and 98 % of control.

For `C[N+](C)(C)NP(=O)(N[N+](C)(C)C)c1ccccc1`, the T/C runs as follows: (dose: 60.0 mg/kg/injection, schedule: Q01DX005 (ip), vehicle: saline) 100 % of control; (dose: 120.0 mg/kg/injection, schedule: Q01DX005 (ip), vehicle: saline) 106 % of control; (dose: 240.0 mg/kg/injection, schedule: Q01DX005 (ip), vehicle: saline) 100 % of control.

Take `COc1c(C)c(O)c2c(c1O)/C(=C/N=NC(N)=S)C(Cl)=N2`: the T/C reads like this: under setting [1], 103 % of control; under setting [2], 103 % of control; under setting [3], 96 % of control.

With `COC(=O)C1(CC(=O)c2ccc(F)cc2)NC(=S)NC(=O)C1C#N` (stereo not drawn), the T/C reads like this: (dose: 60.0 mg/kg/injection, schedule: Q01DX005 (ip), vehicle: saline with Tween-80) 99 % of control; (dose: 120.0 mg/kg/injection, schedule: Q01DX005 (ip), vehicle: saline with Tween-80) 98 % of control; (dose: 240.0 mg/kg/injection, schedule: Q01DX005 (ip), vehicle: saline with Tween-80) 106 % of control.

In the case of `N#CCCNc1ccc(F)cc1`, the T/C is 100 % of control under setting [10], 109 % of control under setting [11] and 104 % of control under setting [12].

For `O=c1ccc(=O)c2c(=O)c3cc4[nH]c5ccccc5[nH]c4cc3c(=O)c12`, the T/C was 94 % of control under setting [8], 92 % of control under setting [4] and 88 % of control under setting [5].

`COC(=O)N1CC2C=CC1C(Cl)(C#N)C2` (stereo not drawn): the T/C is 101 % of control under setting [13], 90 % of control under setting [14] and 106 % of control under setting [15].

Regarding `N#C/C(=C\c1c[nH]c2ccccc12)C(N)=O`, the T/C is, setting by setting: (dose: 100.0 mg/kg/injection, schedule: Q04DX003 (ip), vehicle: saline with Tween-80) 100 % of control; (dose: 200.0 mg/kg/injection, schedule: Q04DX003 (ip), vehicle: saline with Tween-80) 100 % of control; (dose: 400.0 mg/kg/injection, schedule: Q04DX003 (ip), vehicle: saline with Tween-80) 100 % of control.

`COc1cccc2c1C(=O)c1c(O)c3c(c(O)c1C2=O)C[C@@](O)(C(=O)COc1ccccc1)C[C@@H]3OC1CC(N)C(O)C(C)O1` (stereo partly drawn): the T/C was 151 % of control and 169 % of control (dose: 1.56 mg/kg/injection, schedule: Q01DX009 (ip), vehicle: water); 155 % of control and 179 % of control (dose: 3.13 mg/kg/injection, schedule: Q01DX009 (ip), vehicle: water); 174 % of control and 186 % of control (dose: 6.25 mg/kg/injection, schedule: Q01DX009 (ip), vehicle: water); 176 % of control and 179 % of control (dose: 12.5 mg/kg/injection, schedule: Q01DX009 (ip), vehicle: water).

In the case of `NC(=O)CCCCCOc1ccc(OC2OC(CO)C(O)C(O)C2O)cc1` (stereo not drawn), the T/C is 100 % of control (dose: 100.0 mg/kg/injection, schedule: Q04DX002 (ip), vehicle: saline with Tween-80); 102 % of control (dose: 200.0 mg/kg/injection, schedule: Q04DX002 (ip), vehicle: saline with Tween-80); 104 % of control (dose: 400.0 mg/kg/injection, schedule: Q04DX002 (ip), vehicle: saline with Tween-80).

For `O=[n+]1c2ccccc2n([O-])c2cn(-c3ccccc3)c(-c3ccccc3)c21`, the T/C (dose: 50.0 mg/kg/injection, schedule: Q01DX005 (ip), vehicle: saline with Tween-80) is 100 % of control; the T/C (dose: 100.0 mg/kg/injection, schedule: Q01DX005 (ip), vehicle: saline with Tween-80) was 100 % of control; the T/C (dose: 200.0 mg/kg/injection, schedule: Q01DX005 (ip), vehicle: saline with Tween-80) was 101 % of control.

As to `CCCCCCCCCCCC[N+]1([O-])CCOCC1`, the T/C is, setting by setting: (dose: 0.75 mg/kg/injection, schedule: Q01DX009 (ip), vehicle: saline with Tween-80) 93 % of control; (dose: 1.5 mg/kg/injection, schedule: Q01DX009 (ip), vehicle: saline with Tween-80) 91 % of control; (dose: 3.0 mg/kg/injection, schedule: Q01DX009 (ip), vehicle: saline with Tween-80) 93 % of control; under setting [7], 91 % of control; under setting [9], 101 % of control and 94 % of control; under setting [10], 99 % of control and 97 % of control.

Take `CC1OC(OC2C(Oc3cc(O)c4c(c3)OC(c3ccc(O)cc3)CC4=O)OC(CO)C(O)C2O)C(O)C(O)C1O` (stereo not drawn): the T/C is, setting by setting: (dose: 50.0 mg/kg/injection, schedule: Q01DX005 (ip), vehicle: saline) 98 % of control; (dose: 100.0 mg/kg/injection, schedule: Q01DX005 (ip), vehicle: saline) 97 % of control; (dose: 200.0 mg/kg/injection, schedule: Q01DX005 (ip), vehicle: saline) 98 % of control.

For the compound `Cc1cc(C)nc(N/N=C/c2c(Cl)cccc2Cl)n1`, the T/C reads like this: (dose: 50.0 mg/kg/injection, schedule: Q04DX003 (ip), vehicle: Klucel (hydroxypropylcellulose) (HPC)) 99 % of control; (dose: 100.0 mg/kg/injection, schedule: Q04DX003 (ip), vehicle: Klucel (hydroxypropylcellulose) (HPC)) 99 % of control; (dose: 200.0 mg/kg/injection, schedule: Q04DX003 (ip), vehicle: Klucel (hydroxypropylcellulose) (HPC)) 97 % of control.

With `O=C1c2c3c(c4c(c2C(=O)c2c5c(c6c(c21)CCCC6)CCCC5)CCCC4)CCCC3`, the T/C runs as follows: (dose: 7.5 mg/kg/injection, schedule: Q01DX009 (ip), vehicle: saline with Tween-80) 99 % of control; (dose: 15.0 mg/kg/injection, schedule: Q01DX009 (ip), vehicle: saline with Tween-80) 98 % of control; (dose: 30.0 mg/kg/injection, schedule: Q01DX009 (ip), vehicle: saline with Tween-80) 103 % of control.
